From ChEMBL document CHEMBL3988442, “University of Dundee, Small-Polar-MMV Screening Library” (2021)

Columns and labels:
[1] = molecular target: Tryptophan--tRNA ligase (Mycobacterium tuberculosis (strain ATCC 25618 / H37Rv), UniProt P9WFT3); test: Biochemical assay for Mt-TrpRS; assay type: functional
[2] = In vitro enzyme assay to detect hydrolysis of chlorophenol red-beta-D-[…] directly proportional to the number of Toxoplasma stably expressing beta-galactosidase; assay type: functional, organism-based, Toxoplasma gondii; conditions: for IC50: Toxoplasma gondii
[3] = test system: Plasmodium falciparum; test: Calibr Malaria Delayed Death Assay SOP; assay type: functional, organism-based; conditions: for IC50: Plasmodium falciparum
[4] = microbe, parasite or virus in culture; conditions: Mycobacterium tuberculosis, 96 h, read-out: pIC50 (converted)
[5] = microbe, parasite or virus in culture; conditions: Mycobacterium tuberculosis, 72 h, read-out: pIC50 (converted)
[6] = test system: Schistosoma mansoni; test: High throughput screening of compounds against Schistosoma mansoni motility; assay type: functional; set-up: dose or concentration left out as unconfirmed
[7] = molecular target: ClpP1P2 (Mycobacterium tuberculosis (strain ATCC 25618 / H37Rv), UniProt P9WPC3+P9WPC5); test: in vitro assay to detect presence of AMC directly proportional to the activity of ClpP1P2. GHDDI collaboration.; assay type: functional
ClpP1P2, sequence (P9WPC5 whole entry): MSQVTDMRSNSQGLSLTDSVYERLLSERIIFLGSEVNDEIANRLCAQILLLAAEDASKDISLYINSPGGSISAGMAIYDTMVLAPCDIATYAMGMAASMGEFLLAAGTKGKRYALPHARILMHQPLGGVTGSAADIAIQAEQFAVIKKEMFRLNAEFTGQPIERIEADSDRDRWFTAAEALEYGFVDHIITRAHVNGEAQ
ClpP1P2, sequence (P9WPC3 whole entry): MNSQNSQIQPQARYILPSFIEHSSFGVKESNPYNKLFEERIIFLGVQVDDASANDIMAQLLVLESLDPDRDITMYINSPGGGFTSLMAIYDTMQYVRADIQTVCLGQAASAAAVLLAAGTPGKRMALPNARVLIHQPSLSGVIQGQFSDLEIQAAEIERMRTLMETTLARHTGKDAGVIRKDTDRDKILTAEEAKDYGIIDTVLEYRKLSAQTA

Tryptophan--tRNA ligase, sequence (P9WFT3 whole entry): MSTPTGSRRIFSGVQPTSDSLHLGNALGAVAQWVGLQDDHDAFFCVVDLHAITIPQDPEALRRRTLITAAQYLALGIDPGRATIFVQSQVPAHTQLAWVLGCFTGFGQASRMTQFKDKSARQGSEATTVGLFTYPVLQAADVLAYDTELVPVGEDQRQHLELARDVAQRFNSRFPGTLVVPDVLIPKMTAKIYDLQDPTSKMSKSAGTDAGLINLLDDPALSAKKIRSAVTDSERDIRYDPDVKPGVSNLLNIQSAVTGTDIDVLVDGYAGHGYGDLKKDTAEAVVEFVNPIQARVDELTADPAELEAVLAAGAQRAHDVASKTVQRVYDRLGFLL

SMILES | IC50 [1] [µM] | further results
CCOCC1c2c(ncn2C)CCN1C(=O)c1cscn1 (centres undefined) | > 195 | –
CCN(CC1CCOC1)C(=O)c1cc(F)ccc1N1CCN(C)CC1 (centres undefined) | > 195 | –
Cc1ccc(C(=O)NS(=O)(=O)c2cc(Br)ccc2C)c(=O)[nH]1 | > 195 | –
CN(Cc1ccc(F)cc1)CC1(O)CCN(C(=O)c2ccncc2)C1 (centres undefined) | > 195 | –
Cc1ccnc(C2CCN(C(=O)c3cnn(C)c3)C2)n1 (centres undefined) | > 195 | –
NC(=O)CN1CCC(c2cccc(Oc3ccccc3)n2)CC1 | > 195 | –
Cc1cc(CN2CCN(C(=O)NCc3ccco3)CC2)no1 | > 195 | –
O=C(CCC1CCCC1)N1CCCC(c2ncc3c(n2)CCNC3)C1 (centres undefined) | > 195 | –
O=C(NC1CC1)[C@@H]1C[C@@H]2CCN(Cc3ccoc3)C[C@@H]2O1 | > 195 | –
Cn1nc(C#N)c2c1CN(C(=O)c1ccco1)CCC2 | > 195 | –
CCCC(O)CN1CC(C)(C)CN(C(=O)CCc2ccccc2)CC1=O (centres undefined) | > 195 | –
CNc1cncc(C2CCCN2Cc2cccc(C)n2)n1 (centres undefined) | > 195 | –
CC(=O)NC(=O)C1(CCCc2ccncc2)CCN1 (centres undefined) | > 195 | –
Cc1cnn(CC2CCCN2Cc2nnc(C(C)C)o2)c1 (centres undefined) | > 195 | –
CCOCc1cnc2n1CCN(C(=O)c1ccccc1)C2C (centres undefined) | > 195 | –
O=C1CCCN1CCCC(=O)N1CCCC(Cc2cccnc2)C1 (centres undefined) | > 195 | –
Nc1nccnc1C1CN(Cc2ccc(OCC(=O)O)cc2)CCO1 (centres undefined) | > 195 | –
COc1cc(N(C)CCC(O)c2ccccc2)ncn1 (centres undefined) | > 195 | –
O=C(NC1CC1)N1C[C@@H]2CCN(C(=O)c3cscn3)[C@@H]2C1 | > 195 | –
COc1ccc(CN2C[C@@H](O)[C@](O)(CNC(=O)c3ccccn3)C2)cc1 | > 195 | –
Cc1cnc(CC2COCCN(Cc3nccn3C)C2)cn1 (centres undefined) | > 195 | –
O=C(Cc1cccs1)N1Cc2nc(CN3CCCC3)oc2C1 | > 195 | –
O=C1CCC(=O)N1c1nn(Cc2ccc(F)cc2)cc1Cl | > 195 | –
COc1cccc(C(=O)NC(c2ccccn2)[C@H]2CC[C@H](CN)CC2)c1 (some centres undefined) | > 195 | –
Cc1cncc(CN2C[C@@H](O)[C@H](Oc3ccccc3)C2)c1 | > 195 | –
Cc1cccc(C2CCCN2S(=O)(=O)N(C)C)n1 (centres undefined) | > 195 | –
CC(=O)N1CCCC1c1cccc(Oc2ccccc2F)n1 (centres undefined) | > 195 | –

SMILES | IC50 [1] [µM] | further results
CC(Cn1cccn1)NC(=O)NCCc1ccsc1 (centres undefined) | > 195 | –
C[C@]1(O)CN(CCC(N)=O)CC[C@@H]1Oc1cccc(F)c1 | > 195 | –
Cc1nc(Cn2c3c(ccc2=O)CC(NC(N)=O)CC3)cs1 (centres undefined) | > 195 | –
COCC(O)CN1CCC(=O)N(Cc2ccco2)Cc2ccccc21 (centres undefined) | > 195 | –
COCC(=O)N1CCCCC1c1nccc(C)n1 (centres undefined) | > 195 | –
O=C1CN(C(=O)c2cccc(C(F)(F)F)c2)CC(O)CN1CC1CC1 (centres undefined) | > 195 | –
Cn1c(=O)c2cc(C(=O)NCCc3ccccc3)ccc2n(C)c1=O | > 195 | –
Cc1nccn1CC1CCCN(C(=O)c2cnn(C)c2)C1 (centres undefined) | > 195 | –
CN(Cc1ccc(F)cc1)CC1(O)CCN(C(=O)c2ccsc2)C1 (centres undefined) | > 195 | –
Fc1cccc(-c2nc(CN3CCCC3Cn3cccn3)co2)c1 (centres undefined) | > 195 | –
Cn1cc(CCN2CCOC(CNc3cccnn3)C2)cn1 (centres undefined) | > 195 | –
Cc1ccc(Cn2cc(C)c(N)n2)cc1 | > 195 | –
CC(C)N1CCO[C@@H]2CN(C(=O)NCc3ccccc3)CC[C@@H]2C1 | > 195 | –
CN(CC(=O)Nc1cccnc1)C1CCCN(c2cccnn2)C1 (centres undefined) | > 195 | –
CCc1ccc(CN2C[C@H](OC)[C@H]3COC[C@H]32)o1 | > 195 | –
CN1CCC(Cc2cc(Nc3ccccn3)ncn2)CC1 | > 195 | –
Cc1ccc(C(=O)NS(=O)(=O)c2ccccc2Cl)c(=O)[nH]1 | > 195 | –
Oc1cc(CC2COCCN(CC3(O)CCOCC3)C2)ncn1 (centres undefined) | > 195 | –
Cc1cc(N2CCC(c3n[nH]c4nccnc34)C2)ncn1 (centres undefined) | > 195 | –
CC(=O)N1CCCC(c2ccc(C(N)=O)cn2)C1 (centres undefined) | > 195 | –
Cc1nn(C)c(N(C)C)c1CNCCS(C)(=O)=O | > 195 | –
CC(C)OCCCNC(=O)CS(=O)(=O)Cc1ccc(Cl)cc1 | > 195 | –
CN1CC(=O)c2sc(NCCc3ccccc3)nc2C1 | > 195 | –
O=C(c1ccccn1)N1CCC(Cc2cnc3[nH]ccc3c2)CC1 | > 195 | –
C[C@]1(O)CN(Cc2ncc[nH]2)CC[C@@H]1Oc1cccc(F)c1 | > 195 | –
C[S+]([O-])CCNC(=O)Nc1cc(F)ccc1-n1cccn1 (centres undefined) | > 195 | –
CCN1CCC2(CC1)CC(CC(=O)N(C)C)c1ccc(F)cc12 (centres undefined) | > 195 | –

SMILES | IC50 [1] [µM] | further results
COCCNc1nnc(-c2ccccn2)s1 | > 195 | –
NC(=O)C1(CCCc2ccccn2)CCCN(Cc2ncc[nH]2)C1 (centres undefined) | > 195 | –
CNc1nc2c(s1)C(=O)CN(C(=O)NCCc1ccccc1)C2 | > 195 | –
O=C(c1ccc(F)cc1)N1C[C@@H]2COC[C@]2(COc2cccnc2)C1 | > 195 | –
CCCNc1cc(-c2c[nH]nc2C2CCN(C(=O)C3CCC3)C2)ccn1 (centres undefined) | – | IC50 [2]: 0.368 µM; pIC50 [3]: 6.573; IC50 [3]: 0.237 µM
CCS(=O)(=O)N1CCc2c(COCc3ccncc3)cncc2C1 | > 195 | –
COCCN1CCc2ncnc(NC3CC3)c2CC1 | > 195 | –
CC(C)CC(=O)N1CC(=O)N(CCc2ccccc2)CC(O)C1 (centres undefined) | > 195 | –
COc1ccc(CNc2cnn(CC(F)F)c2)cc1 | > 195 | –
O=C(NCc1cncc2c1CCN(CC1CCOC1)C2)c1ccco1 (centres undefined) | > 195 | –
N#Cc1ccc(CN2CCCCC2Cn2cccn2)cc1 (centres undefined) | > 195 | –
COc1ccc(-c2ccccc2CCN)c(OC)c1OC | – | IC50 [2]: 3.52 µM; IC50 [4]: 25.1 µM; pIC50 [3]: 6.053; IC50 [3]: 0.762 µM; IC50 [5]: 43.4 µM
COc1cc(CNc2cnn(CC(F)F)c2)ccc1O | > 195 | –
CCN(C(=O)c1nc2c(s1)CCCN2C)C(C)C | > 195 | –
CCC(NC(=O)c1nn(C)cc1C(=O)O)c1ccc(C)cc1C (centres undefined) | > 195 | –
CN(C)C(=O)CN1CCO[C@H]2CN(Cc3ccoc3)C[C@H]21 | > 195 | –
Cc1nn(CC(=O)NCc2cc3n(n2)CCCN(CC(C)C)C3)cc1Cl | > 195 | –
CO[C@H]1CN(Cc2cc(F)ccc2F)CC[C@@]12CCCO2 | > 195 | –
O=S1(=O)CCC(N(Cc2nc3ccccc3o2)Cc2cccs2)C1 (centres undefined) | > 195 | –
Cc1cn(Cc2ccccc2)nc1N | > 195 | –
COc1cccc(CN2CC[C@H](NC(C)=O)[C@@H](O)CC2)c1F | > 195 | –
CC(C)c1nc(CN2CCC(c3ccnn3CCO)CC2)no1 | > 195 | –
CN(CCC(=O)N1CCCC(Cc2cccnc2)C1)Cc1cccnc1 (centres undefined) | > 195 | –
Cc1cc(C)n(NC(=O)c2ccccc2F)c(=O)c1 | > 195 | –
O=C(NCCc1ccccc1)C1CCN(C(=O)Cn2cncn2)C1 (centres undefined) | > 195 | –
Cn1ccc(C(=O)N2CCC(Cc3cnc4[nH]ccc4c3)C2)n1 (centres undefined) | > 195 | –
CCO[C@H]1CC[C@H]2[C@H]1OCCN2C(=O)COc1ccccc1 | > 195 | –

SMILES | IC50 [1] [µM] | further results
COCC1CC2(CCN(C(=O)c3cncc(C)c3)CC2)CO1 (centres undefined) | > 195 | –
Cc1ccc(S(=O)(=O)NCc2[nH]ncc2Br)cc1F | > 195 | –
O=C(O)c1ccccc1CN1CCOC(CCc2ccncn2)C1 (centres undefined) | > 195 | –
O=C(CN1CCCC(c2ccn[nH]2)C1)Nc1nc2c(s1)CCC2 (centres undefined) | – | IC50 [2]: 0.766 µM; pIC50 [3]: 6.713; IC50 [3]: 0.216 µM
CC(C)CNc1cc(-c2c[nH]nc2C2CCN(C(=O)C3CC3)C2)ccn1 (centres undefined) | – | IC50 [2]: 0.274 µM; pIC50 [3]: 6.615; IC50 [3]: 0.233 µM
O=S(=O)(NCC1(O)CCOc2ccccc21)c1ccc(Br)s1 (centres undefined) | – | IC50 [2]: 7.49 µM; Percent Effect [6]: -11.19%
CNc1oc(-c2ccc(S(=O)(=O)N(C)C)o2)nc1C#N | – | IC50 [2]: > 50.1 µM; IC50 [7]: > 100 µM
Cc1ccc(C(CCNCCCN(C)C)C2CCOC(C)(C)C2)cc1.O=C(O)C(=O)O (centres undefined) | – | pIC50 [2]: 5.301; IC50 [2]: 5.38 µM; pIC50 [3]: 6.22; IC50 [3]: 0.659 µM
CCNCc1ccc(OCc2ccc3c(c2)OCCO3)cc1.Cl | – | pIC50 [2]: 4.872; IC50 [2]: 8.2 µM; IC50 [7]: > 100 µM
CC(C)Nc1cc(-c2c[nH]nc2C2CCN(C(=O)C3CCC3)C2)ccn1 (centres undefined) | – | IC50 [2]: 0.526 µM; pIC50 [3]: 6.647; IC50 [3]: 0.209 µM
CC(C)Nc1cc(-c2c[nH]nc2C2CCN(C(=O)C3CC3)C2)ccn1 (centres undefined) | – | IC50 [2]: 0.423 µM; pIC50 [3]: 6.541; IC50 [3]: 0.269 µM
Cc1cc(C2CCCN(CC(=O)Nc3nc4c(s3)CCC4)C2)n[nH]1 (centres undefined) | – | IC50 [2]: 0.781 µM; IC50 [4]: 47.2 µM; pIC50 [3]: 6.771; IC50 [3]: 0.185 µM; IC50 [5]: 37.8 µM
CCOC(=O)C1(Cc2ccccc2-c2ccccc2OC)CCNCC1.Cl | – | IC50 [2]: 13.2 µM; pIC50 [3]: 6.391; IC50 [3]: 0.369 µM
CCCn1ncc(-c2ccnc(NC3CC(C)(C)NC(C)(C)C3)n2)c1C | – | IC50 [2]: 9.87 µM; pIC50 [3]: 6.559; IC50 [3]: 0.23 µM
CC(C)(C)c1cn2c(n1)C(CNCc1ccccn1)CCC2 (centres undefined) | – | IC50 [2]: 2.04 µM; pIC50 [3]: 6.014; IC50 [3]: 0.881 µM
COC(=O)c1[nH]cc(-c2ccccc2)c1N | – | IC50 [2]: > 50.1 µM; IC50 [4]: 172 µM; IC50 [5]: 196 µM
CCc1nccn1CCNC1CCN(c2nc3ccc(Cl)cc3s2)CC1 | – | IC50 [2]: 8.99 µM; IC50 [4]: 18.4 µM; IC50 [5]: 34 µM
Brc1ccc(N2CCNCC2)nc1 | – | IC50 [2]: > 50.1 µM; IC50 [4]: > 501 µM; IC50 [5]: 185 µM
CC(C)Sc1ccccc1NS(=O)(=O)N(C)C | – | IC50 [2]: > 50.1 µM; IC50 [4]: 252 µM; IC50 [5]: 173 µM
NC(=O)CCc1ccc(Cl)s1 | – | IC50 [2]: > 50.1 µM; IC50 [4]: 160 µM; IC50 [5]: > 501 µM
Cn1nc2n(c1=O)CCN(Cc1ccc(Br)s1)CC2 | – | IC50 [2]: > 50.1 µM; IC50 [4]: > 501 µM; IC50 [5]: 139 µM
NCCC(=O)N1CCCC(CCc2ccc(F)cc2)C1 (centres undefined) | – | IC50 [2]: > 50.1 µM; IC50 [4]: 479 µM; IC50 [5]: 204 µM
NCC(O)c1ccc(-c2ccccc2)cc1 (centres undefined) | – | IC50 [2]: > 25.1 µM; IC50 [4]: 97.4 µM; IC50 [5]: 104 µM
COc1ncccc1-c1csc(NCCSC)n1 | – | IC50 [2]: > 50.1 µM; IC50 [4]: 284 µM; IC50 [5]: 101 µM
